The structures appear in SMILES notation.

The subject of one experiment is HCT-116. The experiment is described as follows: Compound is evaluated for an in vitro cytotoxicity assay against HCT116 tumor cell lines. It counts as functional, cell-based. The settings on record: Homo sapiens.
In experiment [1] the target is Tubulin alpha chain (Sus scrofa) (UniProt P02550). In words: Compound is evaluated for tubulin polymerization (ratio of compound relative to paclitaxel (EC0.01).
Tubulin alpha chain (Sus scrofa), sequence (P02550 whole entry, looked up): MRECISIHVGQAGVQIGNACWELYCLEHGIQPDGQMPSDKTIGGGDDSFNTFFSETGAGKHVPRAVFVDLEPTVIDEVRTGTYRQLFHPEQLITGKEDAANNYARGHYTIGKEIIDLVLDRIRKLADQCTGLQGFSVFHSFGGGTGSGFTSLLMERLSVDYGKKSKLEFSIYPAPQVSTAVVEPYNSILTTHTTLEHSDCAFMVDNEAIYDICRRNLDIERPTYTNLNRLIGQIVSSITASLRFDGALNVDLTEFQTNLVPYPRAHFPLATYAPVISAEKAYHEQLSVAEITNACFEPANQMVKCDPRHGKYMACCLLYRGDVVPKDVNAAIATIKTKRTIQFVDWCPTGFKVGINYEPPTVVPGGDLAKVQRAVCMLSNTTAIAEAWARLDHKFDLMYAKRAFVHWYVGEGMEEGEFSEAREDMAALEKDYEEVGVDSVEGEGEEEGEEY

As for `CC(=O)O[C@H]1C(=O)[C@]2(C)[C@@H](O)CC3OC[C@@]3(OC(C)=O)[C@H]2[C@H](OC(=O)c2ccccc2)[C@]2(O)C[C@H](OC(=O)[C@H](O)[C@@H](NC(=O)c3ccccc3)c3ccoc3)C(C)=C1C2(C)C` (stereo not given in full), it took 0.74 nM to reach half-maximal inhibition with HCT-116 (IC50). Moreover, the Ratio in experiment [1] is 0.85.

As for `CC(=O)O[C@H]1C(=O)[C@@]2(C)[C@H]([C@H](OC(=O)c3ccccc3)[C@]3(O)C[C@H](OC(=O)[C@H](O)[C@@H](NC(=O)c4ccccc4)c4ccccc4)C(C)=C1C3(C)C)[C@]1(OC(=O)N3CC3)CO[C@@H]1C[C@@H]2O`, the IC50 (usually the concentration at which inhibition is half-maximal) with HCT-116 came out at 15.6 nM. That is a double-digit nanomolar value.

`CC(=O)O[C@H]1C(=O)[C@]2(C)[C@@H](O)CC3OC[C@@]3(OC(=O)N3CC3)[C@H]2[C@H](OC(=O)c2ccccc2)[C@]2(O)C[C@H](OC(=O)[C@H](O)[C@@H](NC(=O)c3ccccc3)c3ccco3)C(C)=C1C2(C)C` (stereo not given in full) displayed an IC50 with HCT-116 of 6.9 nM. Also, the Ratio in experiment [1] stood at 0.7.

For the molecule `CC(=O)O[C@H]1C(=O)[C@]2(C)[C@@H](O)CC3OC[C@@]3(OC(C)=O)[C@H]2[C@H](OC(=O)c2ccccc2)[C@]2(O)C[C@H](OC(=O)[C@H](O)[C@@H](NC(=O)OC(C)(C)C)c3ccccc3)C(C)=C1C2(C)C` (stereo not given in full), in the experiment on HCT-116, the IC50 was found to be 0.55 nM. In addition, the Ratio in experiment [1] is 0.55.

On to `CC(=O)O[C@H]1C(=O)[C@]2(C)[C@@H](O)CC3OC[C@@]3(OC(=O)C3CC3)[C@H]2[C@H](OC(=O)c2ccccc2)[C@]2(O)C[C@H](OC(=O)[C@H](O)[C@@H](NC(=O)c3ccccc3)c3ccccc3)C(C)=C1C2(C)C` (stereo not given in full), for which, in the experiment with HCT-116, the concentration for half-maximal inhibition (IC50) was determined as 1 nM.

`CC(=O)O[C@H]1C(=O)[C@]2(C)[C@@H](O)CC3OC[C@@]3(OC(=O)N3CC3)[C@H]2[C@H](OC(=O)c2ccccc2)[C@]2(O)C[C@H](OC(=O)[C@H](O)[C@@H](NC(=O)OC(C)(C)C)c3ccco3)C(C)=C1C2(C)C` (stereo not given in full): the concentration for half-maximal inhibition (IC50) with HCT-116 was 2 nM. Further, in experiment [1], the Ratio came to 0.8.

Source of the values: ChEMBL document CHEMBL1128407 (J Med Chem, 1995).
